Assay results: PMC7875478 (Journal of veterinary pharmacology and therapeutics, 2020)
Where two headings read alike, the source gives them in different places. Blank lines part the entries; values can stand above or below the compound they belong to.

Legend:
[1] = Flunixin meglumine metabolism to 5-OH flunixin in equine liver microsomes; assay type: in vitro ADME; settings: for Vmax (or Vmax1) / Ki: 5-OH flunixin formation; for Ki: substrate inhibition model
equine CYP1A1 = settings: 5-OH flunixin formation
equine CYP3A93 = settings: 5-OH flunixin formation
equine CYP3A97 [2] = tested on: equine CYP3A97
CYP2C92 = assay: Incubation of FM with recombinant equine CYP2C92; assay type: in vitro ADME
[3] = Phenylbutazone metabolism in equine liver microsomes; assay type: in vitro ADME; settings: metabolite formation from PBZ
equine CYP3A97 [4] = assay: Phenylbutazone metabolism to oxyphenbutazone by recombinant equine CYP3A97; assay type: in vitro ADME; settings: oxyphenbutazone formation from PBZ
[5] = tested on: equine liver microsomal P450 forming gamma-hydroxy phenylbutazone; assay: Cytochrome P450 inhibition assay with PBZ in equine liver microsomes; assay type: in vitro ADME; settings: horse, equine liver microsomes, pH 7.4
recombinant CYP3A97 = assay: Cytochrome P450 inhibition assay with PBZ and recombinant CYP3A97; settings: recombinant CYP3A97, inhibitor 10 μM, PBZ 400 μM
[6] = Cytochrome P450 inhibition assay with PBZ in equine liver microsomes; assay type: in vitro ADME; settings: inhibitor 10 μM, PBZ 400 μM
[7] = read-out: Km (or Km1), 5-OH flunixin formation

- Km ([1]; read-out: Km (or Km1), 5-OH flunixin formation, horse 1): 22.6 µM
- Km ([1]; read-out: Km (or Km1), 5-OH flunixin formation, horse 2): 13.1 µM
- Ki ([1]; horse 1): 710 µM
- Ki ([1]; horse 2): 1190 µM
- Km (equine CYP1A1; read-out: Km (or Km1), CYP1A1, high-affinity phase): 495 µM
- Km (equine CYP3A93; read-out: Km (or Km1), CYP3A93, high-affinity phase): 37.6 µM
- Km (equine CYP3A94; [7]): 828 µM
- Km (equine CYP3A95; [7]): 928 µM
- Km (equine CYP3A97 [2]; [7]): 4.07 µM
SMILES: Cc1c(Nc2ncc(O)cc2C(=O)O)cccc1C(F)(F)F [5-OH flunixin, 5-hydroxy-flunixin]
- Best fit model ([1]; 5-OH flunixin formation from FM): Substrate Inhibition
- Vmax (or Vmax1) ([1]; horse 1): 0.613 pmol/min/pmol P450
- Vmax (or Vmax1) ([1]; horse 2): 0.803 pmol/min/pmol P450
- Best fit model (equine CYP1A1; CYP1A1): Biphasic
- Vmax (or Vmax1) (equine CYP1A1; CYP1A1, high-affinity phase): 1.39 pmol/min/pmol P450
- Vmax2 (equine CYP1A1; CYP1A1, low-affinity phase): 0.665 pmol/min/pmol P450
- Km2 (equine CYP1A1; CYP1A1, second phase): 546.6 µM
- Best fit model (equine CYP3A93; CYP3A93): Biphasic
- Vmax (or Vmax1) (equine CYP3A93; CYP3A93, high-affinity phase): 0.148 pmol/min/pmol P450
- Vmax2 (equine CYP3A93; CYP3A93, low-affinity phase): 2.32 pmol/min/pmol P450
- Km2 (equine CYP3A93; CYP3A93, second phase): 1539.8 µM
- Best fit model (equine CYP3A94; 5-OH flunixin formation): Michaelis-Menten
- Vmax (or Vmax1) (equine CYP3A94; 5-OH flunixin formation): 1.39 pmol/min/pmol P450
- Best fit model (equine CYP3A95; 5-OH flunixin formation): Michaelis-Menten
- Vmax (or Vmax1) (equine CYP3A95; 5-OH flunixin formation): 0.675 pmol/min/pmol P450
- Best fit model (equine CYP3A97 [2]; 5-OH flunixin formation): Michaelis-Menten
- Vmax (or Vmax1) (equine CYP3A97 [2]; 5-OH flunixin formation): 0.450 pmol/min/pmol P450

SMILES: Cc1c(Nc2ncccc2C(=O)O)cccc1C(F)(F)F [FM, flunixin meglumine]
- Generation of metabolites by CYP2C92 (CYP2C92): did not generate any measurable metabolites

- Km ([3]; horse 1): 29.2 µM
- Km ([3]; horse 2): 79.3 µM
SMILES: CC(O)CCC1C(=O)N(c2ccccc2)N(c2ccccc2)C1=O (stereo not shown) [Gamma-hydroxy phenylbutazone, gamma-hydroxy phenylbutazone]
- Best fit model [3]: Michaelis-Menten
- Vmax ([3]; horse 1): 1.56 pmol/min/pmol P450
- Vmax ([3]; horse 2): 0.218 pmol/min/pmol P450

SMILES: CCCCC1C(=O)N(c2ccccc2)N(c2ccc(O)cc2)C1=O (stereo not shown) [Oxyphenbutazone, oxyphenbutazone]
- Best fit model [3]: Michaelis-Menten
- Vmax ([3]; horse 1): 1.72 pmol/min/pmol P450
- Vmax ([3]; horse 2): 0.279 pmol/min/pmol P450
- Best fit model (equine CYP3A97 [4]): Michaelis-Menten
- Vmax (equine CYP3A97 [4]): 2.66 pmol/min/pmol P450

SMILES: O=c1cc(-c2ccccc2)oc2c1ccc1ccccc12 [alpha-naphthoflavone]
- inhibition at 30 min, 10 μM [5]: 79%
- Increased production of oxyphenbutazone compared to control (recombinant CYP3A97): 150%

- Oxyphenbutazone production decreased in microsomal incubations [6]: 53%
SMILES: CC(C)(O)c1ccccc1CC[C@@H](SCC1(CC(=O)O)CC1)c1cccc(/C=C/c2ccc3ccc(Cl)cc3n2)c1 [montelukast]
